In patent US20140166028A1, “Enhanced Delivery of Nicotine, THC, Tobacco, Cannabidiol or Base Alkaloid from an Electronic Cigarette or Other Vapor or Smoke Producing Device Through Use of an Absorption Conditioning Unit” (priority 2012, published 2014):
Several values for one entry are separate records, joined by “and”; a condition that tells them apart may be missing. Identical values can stand only once.

What was measured:
[1] = Buffer power test: pH on 1X, 2X, 3X dilution with Dulbecco's phosphate buffered saline (DPBS); assay type: physicochemical; conditions: for pH 1X DPBS: 1X dilution with DPBS; for pH 1X DPBS / pH 2X DPBS / pH 3X DPBS / pH 0X DPBS: 22-23° C.; for 1× pH: 1× dilution with DPBS; for pH 2X DPBS: 2X dilution with DPBS; for 2× pH: 2× dilution with DPBS; for pH 3X DPBS: 3X dilution with DPBS; for 3× pH: 3× dilution with DPBS; for pH of the product or solution: undiluted (0×); for pH 0X DPBS: undiluted
Description: The pH of the resulting solution is tested and the test is passed if the resulting solution has a pH below 6.0.”
A Dulbecco phosphate buffer saline solution (DPBS) was purchased and used for all compositions at the 1×, 2× and 3× dilution. A typical composition for DPBS is provided below:

[2] = capsules with sesame oil, oral; cited from earlier work

## O=C([O-])O.[Na+] [0.1M Sodium Bicarbonate, sodium bicarbonate]
[1]; listed as NaHCO3 .1M*
  pH 1X DPBS: 7.9 and 7.7
  pH 2X DPBS: 7.5 and 7.6
  pH 3X DPBS: 7.5 and 7.6
[1]; listed as NaHCO3 .1M**
  pH 1X DPBS: 7.7
  pH 2X DPBS: 7.5
  pH 3X DPBS: 7.5
[1]
  1× pH: 7.9 and 7.7
  2× pH: 7.5
  3× pH: 7.5
  pH of the product or solution: 8.1
  pH 0X DPBS: 8.1

## O=C([O-])[O-].[Na+].[Na+] [Na2CO3 .1M, sodium carbonate]
[1]
  pH 1X DPBS: 10.9 and 11.1
  1× pH: 10.9
  pH 2X DPBS: 11.1
  2× pH: 10.8
  pH 3X DPBS: 11.1
  3× pH: 10.6
  pH 0X DPBS: 11.5 and 11.3
[1]; listed as 0.1M Sodium Carbonate
  pH of the product or solution: 11.3
[1]; listed as Sodium carbonate solution: 0.1M
  pH of the product or solution: 11.5

## CCCCCc1cc(O)c2c(c1)OC(C)(C)[C@@H]1CCC(C)=C[C@@H]21 [dronabinol]
[2]
  fraction entering the systemic circulation: 10-20%
